Assay: Solubility of dye or dye composition in water
Type: physicochemical
Procedure: The method of Example 1 was repeated except that the condensation reaction with ethanolamine in stage (iv) was stopped after 2.5 hours. The product was a mixture of Dye (A), Dye (B) and Dye (C) in relative proportions 43:35:22 by weight. This dye mixture has a solubility of 10% in water at 20° C. compared to a solubility of 3% for Dye (A) alone under the same conditions.
The ratio of Dyes (A), (B) and (C) in Example 4 may be varied by altering the time and temperature of the ethanolamine condensation step (Example 1, step (iv)). The solubility of a variety of dye compositions in water at 20° C. and pH 9.5 is shown in Table 2 below together with optical density, light fastness (ΔE after 50 hours) and wet-fastness results of prints prepared from these compositions. The prints were prepared by printing an ink formed by dissolving 2.5 parts of each composition in 97.5 parts of a mixture consisting of 88 parts water, 5 parts thiodiglycol, 5 parts 2-pyrrolidone and 2 parts Surfynol 465™ (a non-ionic surfactant) onto the substrate shown in the third column of Table 2 using a Canon 4300 ink jet printer.

- solubility in water (water at 20° C.): 3%
- Solubility (%) (water at 20° C. and pH 9.5): 3%
SMILES: CNCCCNc1nc(NCCO)nc(Nc2ccc(/N=N/c3c(N)ccc4cc(S(=O)(=O)O)cc(O)c34)c(S(=O)(=O)O)c2)n1 [Dye (1)]

Source: patent US6482255B1, “Disazodyes for ink jet printing” (Avecia Limited, priority 1997, dated 2002)
